Earlier results, collected in US8642030B2, “Compositions containing coenzyme Q-10 and dihydrolipoic acid” (EPC Europe GmbH, priority 2006, dated 2014).

Conditions: cited from earlier work

## COC1=C(OC)C(=O)C(C/C=C(\C)CC/C=C(\C)CC/C=C(\C)CC/C=C(\C)CC/C=C(\C)CC/C=C(\C)CC/C=C(\C)CC/C=C(\C)CC/C=C(\C)CCC=C(C)C)=C(C)C1=O [CoQ-10]
  solubility in most hydrophilic solvents such as water: sparingly soluble
